Active and inactive are the calls of the source. The rule behind the calls is not given here.
Tests used:
MGC-803 [1] = experiment: Antitumor activity against human MGC-803 cells xenografted in mouse assessed as reduction in tumor weight at 150 mg/kg, sc measured after 28 days relative to control; assay type: functional; design: scale not given: the % may be the effect or the level left; conditions: time 28 day
MGC-803 [2] = experiment: Antiproliferative activity against human MGC-803 cells assessed as cell viability measured after 48 hrs by MTT assay relative to control; assay type: functional
MGC-803 [3] = experiment: Induction of apoptosis in human MGC-803 cells assessed as necrotic cells at 150 nmol/L measured after 48 hrs by Annexin V-FITC/propidium iodide staining based flow cytometry (reference value: 0.5%); assay type: functional
MGC-803 [4] = experiment: Induction of morphological changes in human MGC-803 cells assessed as nuclear fragmentation at 50 to 150 nmol/L measured after 48 hrs by DAPI staining based assay; assay type: functional, cell-based; conditions: dose 50-150 nmol/L
MGC-803 [5] = experiment: Induction of apoptosis in human MGC-803 cells assessed as early apoptotic cells at 75 nmol/L measured after 48 hrs by Annexin V-FITC/propidium iodide staining based flow cytometry (reference value: 2.2%); assay type: functional
MGC-803 [6] = experiment: Induction of apoptosis in human MGC-803 cells assessed as late apoptotic cells at 150 nmol/L measured after 48 hrs by Annexin V-FITC/propidium iodide staining based flow cytometry (reference value: 5.6%); assay type: functional
MGC-803 [7] = experiment: Induction of apoptosis in human MGC-803 cells assessed as late apoptotic cells at 50 nmol/L measured after 48 hrs by Annexin V-FITC/propidium iodide staining based flow cytometry (reference value: 5.6%); assay type: functional
MGC-803 [8] = experiment: Induction of apoptosis in human MGC-803 cells assessed as down regulation of c-IAP1 expression at 50 to 150 nmol/L measured after 48 hrs by Western blot analysis; assay type: functional, cell-based; conditions: dose 50-150 nmol/L
MGC-803 [9] = experiment: Induction of apoptosis in human MGC-803 cells assessed as viable cells at 100 nmol/L measured after 48 hrs by Annexin V-FITC/propidium iodide staining based flow cytometry (reference value: 91.7%); assay type: functional; conditions: read-out: Activity
[10] = biological target: T1, NEDD8-activating enzyme E1 regulatory subunit (Homo sapiens) (UniProt Q13564); experiment: Activation of NAE1-mediated neddylation in human MGC-803 cells assessed as increase in Nedd8 neddylation at 50 to 150 nmol/L measured after 24 hrs by Western blot analysis; assay type: cell-based; conditions: filed as activator, dose 50-150 nmol/L
T1 sequence (whole entry): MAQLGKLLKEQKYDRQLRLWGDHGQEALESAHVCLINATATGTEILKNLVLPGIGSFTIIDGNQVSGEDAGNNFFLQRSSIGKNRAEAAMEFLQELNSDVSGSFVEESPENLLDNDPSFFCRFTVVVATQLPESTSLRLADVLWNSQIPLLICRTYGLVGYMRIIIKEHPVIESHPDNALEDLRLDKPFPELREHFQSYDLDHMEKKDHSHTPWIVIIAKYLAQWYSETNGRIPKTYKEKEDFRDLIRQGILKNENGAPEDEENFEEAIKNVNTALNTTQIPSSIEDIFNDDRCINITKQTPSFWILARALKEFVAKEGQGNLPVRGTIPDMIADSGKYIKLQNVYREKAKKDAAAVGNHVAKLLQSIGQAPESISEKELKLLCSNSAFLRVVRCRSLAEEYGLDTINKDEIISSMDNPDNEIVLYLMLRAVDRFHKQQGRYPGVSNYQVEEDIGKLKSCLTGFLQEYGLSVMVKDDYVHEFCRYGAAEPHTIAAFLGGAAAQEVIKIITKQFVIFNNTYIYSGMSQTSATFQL

MGC-803 [11] = experiment: Induction of apoptosis in human MGC-803 cells assessed as upregulation of Bax expression at 50 to 150 nmol/L measured after 48 hrs by Western blot analysis; assay type: functional, cell-based; conditions: dose 50-150 nmol/L
MGC-803 [12] = experiment: Induction of apoptosis in human MGC-803 cells assessed as necrotic cells at 50 nmol/L measured after 48 hrs by Annexin V-FITC/propidium iodide staining based flow cytometry (reference value: 0.5%); assay type: functional
MGC-803 [13] = experiment: Induction of morphological changes in human MGC-803 cells assessed as nuclear condensation at 50 to 150 nmol/L measured after 48 hrs by DAPI staining based assay; assay type: functional, cell-based; conditions: dose 50-150 nmol/L
MGC-803 [14] = experiment: Induction of apoptosis in human MGC-803 cells assessed as upregulation of Bad expression at 50 to 150 nmol/L measured after 48 hrs by Western blot analysis; assay type: functional, cell-based; conditions: dose 50-150 nmol/L
MGC-803 [15] = experiment: Induction of apoptosis in human MGC-803 cells assessed as early apoptotic cells at 150 nmol/L measured after 48 hrs by Annexin V-FITC/propidium iodide staining based flow cytometry (reference value: 2.2%); assay type: functional
MGC-803 [16] = experiment: Induction of morphological changes in human MGC-803 cells assessed as cell rounding at 50 to 150 nmol/L measured after 48 hrs by bright field microscopic analysis; assay type: functional, cell-based; conditions: dose 50-150 nmol/L
MGC-803 [17] = experiment: Induction of apoptosis in human MGC-803 cells assessed as viable cells at 150 nmol/L measured after 48 hrs by Annexin V-FITC/propidium iodide staining based flow cytometry (reference value: 91.7%); assay type: functional; conditions: read-out: Activity
MGC-803 [18] = experiment: Induction of apoptosis in human MGC-803 cells assessed as upregulation of FADD expression at 50 to 150 nmol/L measured after 48 hrs by Western blot analysis; assay type: functional, cell-based; conditions: dose 50-150 nmol/L
MGC-803 [19] = experiment: Cell cycle arrest in human MGC-803 cells assessed as accumulation at G2 phase at 100 nmol/L measured after 48 hrs by propidium iodide staining based flow cytometry (reference value: 24.91%); assay type: functional
[20] = biological target: T1, NEDD8-activating enzyme E1 regulatory subunit (Homo sapiens); experiment: Stabilization of NAE1 (unknown origin) at 150 nmol/L by CETSA; conditions: filed as activator
MGC-803 [21] = experiment: Induction of apoptosis in human MGC-803 cells assessed as early apoptotic cells at 100 nmol/L measured after 48 hrs by Annexin V-FITC/propidium iodide staining based flow cytometry (reference value: 2.2%); assay type: functional
MGC-803 [22] = experiment: Induction of apoptosis in human MGC-803 cells assessed as down regulation of c-IAP1 expression at 150 nmol/L measured after 24 hrs in presence of NEDDylation inhibitor MLN4924 by Western blot analysis; assay type: functional, cell-based
MGC-803 [23] = experiment: Cell cycle arrest in human MGC-803 cells assessed as accumulation at S phase at 50 nmol/L measured after 48 hrs by propidium iodide staining based flow cytometry (reference value: 34.48%); assay type: functional
MGC-803 [24] = experiment: Induction of apoptosis in human MGC-803 cells assessed as down regulation of c-IAP1 expression at 150 nmol/L measured after 24 hrs in presence of protein synthesis inhibitor CHX by Western blot analysis; assay type: functional, cell-based
MGC-803 [25] = experiment: Induction of apoptosis in human MGC-803 cells assessed as upregulation of PIDD expression at 50 to 150 nmol/L measured after 48 hrs by Western blot analysis; assay type: functional, cell-based; conditions: dose 50-150 nmol/L
MGC-803 [26] = experiment: Induction of apoptosis in human MGC-803 cells assessed as increase in activated caspase-2 expression at 50 to 150 nmol/L measured after 48 hrs by Western blot analysis; assay type: functional, cell-based; conditions: dose 50-150 nmol/L
MGC-803 [27] = experiment: Cell cycle arrest in human MGC-803 cells assessed as accumulation at G2 phase at 150 nmol/L measured after 48 hrs by propidium iodide staining based flow cytometry (reference value: 24.91%); assay type: functional
MGC-803 [28] = experiment: Induction of apoptosis in human MGC-803 cells assessed as viable cells at 75 nmol/L measured after 48 hrs by Annexin V-FITC/propidium iodide staining based flow cytometry (reference value: 91.7%); assay type: functional; conditions: read-out: Activity

COc1ccc(CN(C(=O)Cc2cccs2)c2cc(OC)c(OC)c(OC)c2)cc1
Activity (MGC-803 [1]): 46% | Activity (MGC-803 [2]): 12.1% | Activity (MGC-803 [3]): 3.8% | Activity (MGC-803 [4]): Active | Activity (MGC-803 [5]): 12.6% | Activity (MGC-803 [6]): 47.6% | Activity (MGC-803 [7]): 6.5% | Activity (MGC-803 [8]): Active | viability at 0.1 µM (MGC-803 [9]): 32% | Activity [10]: Active | Activity (MGC-803 [11]): Active | Activity (MGC-803 [12]): 0.6% | Activity (MGC-803 [13]): Active | Activity (MGC-803 [14]): Active | Activity (MGC-803 [15]): 39.9% | Activity (MGC-803 [16]): Active | viability at 0.15 µM (MGC-803 [17]): 8.6% | Activity (MGC-803 [18]): Active | Activity (MGC-803 [19]): 36.03% | Activity [20]: Active | Activity (MGC-803 [21]): 42.4% | Activity (MGC-803 [22]): inactive | Activity (MGC-803 [23]): 27.68% | Activity (MGC-803 [24]): Active | Activity (MGC-803 [25]): Active | Activity (MGC-803 [26]): Active | Activity (MGC-803 [27]): 52.97% | viability at 0.075 µM (MGC-803 [28]): 74.4%

— ChEMBL document CHEMBL4765275, “Discovery of novel tertiary amide derivatives as NEDDylation pathway activators to inhibit the tumor progression in vitro and in vivo” (Eur J Med Chem, 2020)
